# Results reported in PubChem BioAssay (NCI).
#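 Step 1: Grow cells in 96-well plates. Step 2: Expose to compound for 48 hours at 5 concentrations. Step 3: Interpolate endpoints linearly; if unreached, use highest concentration. The concentration for full growth arrest is given as TGI.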
# Tested on: 786-0 renal
# Experiment: growth of human tumour cells (NCI), 48 h
row,Compound,TGI
1,CCOC(=O)C1=C(C)N(C)C23OC4(C(=O)OC)CC2c2ccccc2C1N3C4=O (stereo not given),> 100 µM
2,CC(=O)c1c2c(cc3c1CC1(Cc4ccccc4C1=O)C3)CCC2 (stereo not given),95.9 µM
3,Cc1cccc(-c2nc3ccc([N+](=O)[O-])cc3c(=O)o2)c1,> 100 µM
4,O=C1N=c2ccccc2=C1c1c(O)[nH]c2ccccc12,21.6 µM
5,CCCCCCCCCCCCCCCCCCNc1ccn(C2OC(COP(=O)(O)OCC3OC(n4cc(C)c(=O)[nH]c4=O)CC3O)C(O)C2O)c(=O)n1 (stereo not given),31.9 µM
6,NC(N)=NCCN=C(N)N,> 100 µM
7,COC(=O)C(C)(NC(=O)C(CC(=O)OC(C)(C)C)NC(=O)OC(C)(C)C)c1ccccc1 (stereo not given),> 100 µM
8,CCOC(=O)C1=CC(C)(C(=O)OCC)Nc2c(nc(OC)n(C)c2=O)N1 (stereo not given),> 10 µM
9,Oc1ccc2ccccc2c1/C=C/c1ccc2c(Br)cc(Br)c(O)c2n1,19.5 µM
10,C=C1CC(c2ccc(OCCCN3C(=O)c4ccccc4C3=O)c(OC)c2)OC1=O (stereo not given),14.6 µM
11,O=[N+]([O-])c1ccc(/C=N/n2c(CO)nc3ccccc32)o1,17.9 µM

# Tested on: MDA-MB-435
# Experiment: growth of human tumour cells (NCI), 48 h
row,Compound,TGI
1,CCOC(=O)C1=C(C)N(C)C23OC4(C(=O)OC)CC2c2ccccc2C1N3C4=O (stereo not given),> 100 µM
2,CC(=O)c1c2c(cc3c1CC1(Cc4ccccc4C1=O)C3)CCC2 (stereo not given),64 µM
3,Cc1cccc(-c2nc3ccc([N+](=O)[O-])cc3c(=O)o2)c1,> 100 µM
4,O=C1N=c2ccccc2=C1c1c(O)[nH]c2ccccc12,> 100 µM
5,CCCCCCCCCCCCCCCCCCNc1ccn(C2OC(COP(=O)(O)OCC3OC(n4cc(C)c(=O)[nH]c4=O)CC3O)C(O)C2O)c(=O)n1 (stereo not given),33.7 µM
6,NC(N)=NCCN=C(N)N,> 100 µM
7,COC(=O)C(C)(NC(=O)C(CC(=O)OC(C)(C)C)NC(=O)OC(C)(C)C)c1ccccc1 (stereo not given),> 100 µM
8,CCOC(=O)C1=CC(C)(C(=O)OCC)Nc2c(nc(OC)n(C)c2=O)N1 (stereo not given),> 10 µM
9,Oc1ccc2ccccc2c1/C=C/c1ccc2c(Br)cc(Br)c(O)c2n1,36.2 µM
10,C=C1CC(c2ccc(OCCCN3C(=O)c4ccccc4C3=O)c(OC)c2)OC1=O (stereo not given),11.7 µM
11,O=[N+]([O-])c1ccc(/C=N/n2c(CO)nc3ccccc32)o1,13.9 µM

# Tested on: A498 renal
# Experiment: growth of human tumour cells (NCI), 48 h
row,Compound,TGI
1,CCOC(=O)C1=C(C)N(C)C23OC4(C(=O)OC)CC2c2ccccc2C1N3C4=O (stereo not given),> 100 µM
2,CC(=O)c1c2c(cc3c1CC1(Cc4ccccc4C1=O)C3)CCC2 (stereo not given),> 100 µM
3,Cc1cccc(-c2nc3ccc([N+](=O)[O-])cc3c(=O)o2)c1,> 100 µM
4,O=C1N=c2ccccc2=C1c1c(O)[nH]c2ccccc12,64.3 µM
5,CCCCCCCCCCCCCCCCCCNc1ccn(C2OC(COP(=O)(O)OCC3OC(n4cc(C)c(=O)[nH]c4=O)CC3O)C(O)C2O)c(=O)n1 (stereo not given),58.3 µM
6,NC(N)=NCCN=C(N)N,> 100 µM
7,COC(=O)C(C)(NC(=O)C(CC(=O)OC(C)(C)C)NC(=O)OC(C)(C)C)c1ccccc1 (stereo not given),> 100 µM
8,CCOC(=O)C1=CC(C)(C(=O)OCC)Nc2c(nc(OC)n(C)c2=O)N1 (stereo not given),> 10 µM
9,Oc1ccc2ccccc2c1/C=C/c1ccc2c(Br)cc(Br)c(O)c2n1,18.6 µM
10,C=C1CC(c2ccc(OCCCN3C(=O)c4ccccc4C3=O)c(OC)c2)OC1=O (stereo not given),6.83 µM
11,O=[N+]([O-])c1ccc(/C=N/n2c(CO)nc3ccccc32)o1,32.4 µM

# Tested on: RPMI-8226 leukemia
# Experiment: growth of human tumour cells (NCI), 48 h
row,Compound,TGI
1,CCOC(=O)C1=C(C)N(C)C23OC4(C(=O)OC)CC2c2ccccc2C1N3C4=O (stereo not given),> 100 µM
2,CC(=O)c1c2c(cc3c1CC1(Cc4ccccc4C1=O)C3)CCC2 (stereo not given),39.1 µM
3,Cc1cccc(-c2nc3ccc([N+](=O)[O-])cc3c(=O)o2)c1,> 100 µM
4,O=C1N=c2ccccc2=C1c1c(O)[nH]c2ccccc12,> 100 µM
5,CCCCCCCCCCCCCCCCCCNc1ccn(C2OC(COP(=O)(O)OCC3OC(n4cc(C)c(=O)[nH]c4=O)CC3O)C(O)C2O)c(=O)n1 (stereo not given),37.3 µM
6,NC(N)=NCCN=C(N)N,> 100 µM
7,COC(=O)C(C)(NC(=O)C(CC(=O)OC(C)(C)C)NC(=O)OC(C)(C)C)c1ccccc1 (stereo not given),> 100 µM
8,CCOC(=O)C1=CC(C)(C(=O)OCC)Nc2c(nc(OC)n(C)c2=O)N1 (stereo not given),> 10 µM
9,Oc1ccc2ccccc2c1/C=C/c1ccc2c(Br)cc(Br)c(O)c2n1,41.4 µM
10,C=C1CC(c2ccc(OCCCN3C(=O)c4ccccc4C3=O)c(OC)c2)OC1=O (stereo not given),6.69 µM
11,O=[N+]([O-])c1ccc(/C=N/n2c(CO)nc3ccccc32)o1,19.6 µM

# Tested on: SK-MEL-5 melanoma
# Experiment: growth of human tumour cells (NCI), 48 h
row,Compound,TGI
1,CCOC(=O)C1=C(C)N(C)C23OC4(C(=O)OC)CC2c2ccccc2C1N3C4=O (stereo not given),> 100 µM
2,CC(=O)c1c2c(cc3c1CC1(Cc4ccccc4C1=O)C3)CCC2 (stereo not given),23 µM
3,Cc1cccc(-c2nc3ccc([N+](=O)[O-])cc3c(=O)o2)c1,> 100 µM
4,O=C1N=c2ccccc2=C1c1c(O)[nH]c2ccccc12,> 100 µM
5,CCCCCCCCCCCCCCCCCCNc1ccn(C2OC(COP(=O)(O)OCC3OC(n4cc(C)c(=O)[nH]c4=O)CC3O)C(O)C2O)c(=O)n1 (stereo not given),28.1 µM
6,NC(N)=NCCN=C(N)N,> 100 µM
7,COC(=O)C(C)(NC(=O)C(CC(=O)OC(C)(C)C)NC(=O)OC(C)(C)C)c1ccccc1 (stereo not given),> 100 µM
8,CCOC(=O)C1=CC(C)(C(=O)OCC)Nc2c(nc(OC)n(C)c2=O)N1 (stereo not given),> 10 µM
9,Oc1ccc2ccccc2c1/C=C/c1ccc2c(Br)cc(Br)c(O)c2n1,14.5 µM
10,C=C1CC(c2ccc(OCCCN3C(=O)c4ccccc4C3=O)c(OC)c2)OC1=O (stereo not given),23.2 µM
11,O=[N+]([O-])c1ccc(/C=N/n2c(CO)nc3ccccc32)o1,6.78 µM
